Experimental data taken from patent US20220118051A1, “SELF-ASSEMBLING VEGF NANOPARTICLES” (Northwestern University, priority 2018, published 2022).
Entries after “also recorded” stand apart in the source; their conditions may differ. C16 = N-terminal C16 alkyl chain

B1: rVEGF: mouse recombinant VEGF (R&D systems) (protein)
chain: APTTEGEQKSHEVIKFMDVYQRSYCRPIETLVDIFQEYPDEIEYIFKPSCVPLMRCAGCCNDEALECVPTSESNITMQIMRIKPHQSQHIGEMSFLQHSRCECRPKKDRTKPENHCEPCSERRKHLFVQDPQTCKCSCKNTDSRCKARQLELNERTCRCDKPRR

What was measured:
[1] = tested on: SCA1 knock-in mice (SCA1154Q/2Q); test: Rotating rod assay (accelerating rotarod); type: in vivo, mouse; settings: SCA1 mice at 26 weeks; for rotarod performance: after two-week ICV delivery from 24 weeks, compared to aCSF-treated SCA1 mice
Description: (§1) To test for behavioral and pathological improvement mice were treated for a two-week period starting at 24 weeks. Nano-VEGF, mouse rVEGF (R&D systems, Minneapolis, Minn.) or artificial CSF (sham controls) were delivered using the intracerebroventricular route (into the right lateral ventricle with stereotaxic coordinates: A/P −0.5 mm, M/L −1.1 mm, D/V −2.5 mm). using osmotic ALZET pumps; model #1002, Durect) (Cvetanovic et al., 2011; herein incorporated by reference in its entirety). Behavioral assays were performed at 26 weeks; while biochemical and histochemical analysis was performed at 27 weeks (after euthanasia). For electrophysiological experiments, we used 8-10 week-old mice for pump placement (with a similar two-week treatment regimen) since it is difficult to generate good electrophysiological traces from older mice.
Rotating Rod Assay: 26-week-old mice (post-treatment) were placed on a rotating rod apparatus (Ugo Basile) that accelerates linearly from 4 to 40 rotations per minute over a 5-minute period. Mice were subjected to four trials per day for four consecutive days, each trial lasting to a maximum of ten minutes, with at least ten minutes of rest between each trial. The average performances for each day were plotted, and statistical differences between the different groups were analyzed using repeated measures two-way ANOVA (followed by Tukey's honest significant difference post-hoc test for multiple comparisons). All statistical analyses here and elsewhere were performed using GraphPad Prism 6 software (GraphPad Software, La Jolla Calif. USA). Data were considered significant for p<0.05. Data are expressed as mean±SEM.

[2] = tested on: SCA1 knock-in mice (SCA1154Q/2Q); test: Gait analysis on transparent treadmill (Digigait); type: in vivo, mouse; settings: tested up to 24 cm/s, untreated SCA1 mice barely walk at 5 cm/s
Description: as §1
Gait Analysis: Mice were placed on a transparent treadmill belt connected to a high-speed digital video camera (Digigait© system; Mouse Specifics, Inc.). The speed of the treadmill was set to the minimum of 5 cm/s up to maximum tolerated speed (maxed out at 24 cm/s). The performance of mice on the treadmill at different speeds was recorded with digital video camera.

Purkinje cells [3] = test: Calbindin staining, Purkinje cell dendritic length; type: in vivo, mouse; settings: SCA1 mice at 27 weeks; vs aCSF
Description: as §1
(§2) 27-week-old mice (post treatment and post behavioral analysis) were anesthetized by isoflurane inhalation and were perfused with ice-cold PBS, followed by 4% paraformaldehyde in PBS (Israeli et al., 2016; herein incorporated by reference in its entirety). The brains were post-fixed in 4% paraformaldehyde for 24 hrs, followed by tissue saturation in 30% sucrose for 48-72 hrs. […] After three washes in TBST, signals were detected using according secondary antibodies for 2 hours at RT. […]

VEGFR2 = target: T1, VEGFR2 (Mus musculus, UniProt P35918); test: Phospho-VEGFR2 ELISA on cerebellar lysates; type: in vivo
T1 construct: Cerebellar lysates were prepared in 2× cell lysis buffer; from tissue; host or cells: mouse cerebellum (SCA1 154Q/2Q knock-in and wild-type mice)
T1 sequence (P35918 20-1345): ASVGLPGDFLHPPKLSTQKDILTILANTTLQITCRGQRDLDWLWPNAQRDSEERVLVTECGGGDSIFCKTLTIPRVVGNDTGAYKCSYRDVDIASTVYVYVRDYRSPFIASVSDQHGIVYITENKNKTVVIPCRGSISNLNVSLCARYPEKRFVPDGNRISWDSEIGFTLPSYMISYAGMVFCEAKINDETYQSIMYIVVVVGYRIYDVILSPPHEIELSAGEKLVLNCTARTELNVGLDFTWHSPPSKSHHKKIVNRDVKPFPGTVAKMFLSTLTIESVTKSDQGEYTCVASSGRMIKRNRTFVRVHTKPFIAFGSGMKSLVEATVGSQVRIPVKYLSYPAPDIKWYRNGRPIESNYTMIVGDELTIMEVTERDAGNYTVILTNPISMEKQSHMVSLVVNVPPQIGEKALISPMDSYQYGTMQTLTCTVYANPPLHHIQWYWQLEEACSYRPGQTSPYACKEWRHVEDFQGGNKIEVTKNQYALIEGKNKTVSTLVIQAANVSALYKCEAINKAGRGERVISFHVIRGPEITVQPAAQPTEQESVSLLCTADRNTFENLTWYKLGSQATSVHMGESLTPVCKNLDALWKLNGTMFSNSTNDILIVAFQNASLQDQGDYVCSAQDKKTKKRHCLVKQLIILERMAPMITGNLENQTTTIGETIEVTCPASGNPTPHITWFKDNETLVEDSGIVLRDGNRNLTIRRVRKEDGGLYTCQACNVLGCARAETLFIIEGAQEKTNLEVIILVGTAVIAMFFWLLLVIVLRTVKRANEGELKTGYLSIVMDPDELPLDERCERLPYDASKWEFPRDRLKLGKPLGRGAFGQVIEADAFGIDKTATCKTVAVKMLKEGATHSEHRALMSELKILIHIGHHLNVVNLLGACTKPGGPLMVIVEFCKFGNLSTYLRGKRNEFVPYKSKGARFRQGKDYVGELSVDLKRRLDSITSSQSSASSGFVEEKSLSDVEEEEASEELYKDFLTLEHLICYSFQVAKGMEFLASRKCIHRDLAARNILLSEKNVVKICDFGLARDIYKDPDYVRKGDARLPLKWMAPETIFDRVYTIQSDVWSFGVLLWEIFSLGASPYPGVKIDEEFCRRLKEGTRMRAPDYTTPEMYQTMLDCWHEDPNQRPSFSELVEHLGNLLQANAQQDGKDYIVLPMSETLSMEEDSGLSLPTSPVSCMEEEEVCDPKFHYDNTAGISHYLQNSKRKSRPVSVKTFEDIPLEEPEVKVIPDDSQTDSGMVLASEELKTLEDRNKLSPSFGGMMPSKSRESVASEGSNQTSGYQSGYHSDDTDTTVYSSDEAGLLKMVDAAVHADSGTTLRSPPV
Description: as §1
Phospho-VEGFR2 ELISA was performed using PathScan® Phospho-VEGFR2 (Ty1175) Sandwich ELISA kit (7335, Cell Signaling), according to manufacturer's instruction. Cerebellar lysates were prepared in 2× cell lysis buffer, and undiluted tissue lysates were incubated in 96-well plates coated with phosphor-VEGFR2 primary antibody overnight at 4° C. Wells were washed several times, and detection antibody was added to the well and incubated for 1 hr at 37C and with HRP-conjugated secondary antibody for 30 min at 37° C. Signals were detected with 3,3′,5,5′-Tetramethylbenzidine (TMB) substrate and sulfuric acid were added to stop the reaction. Absorbance was read at 450 nm within 30 min after stopping the reaction.

[4] = tested on: cerebellar microvasculature; test: Collagen IV immunostaining of cerebellar microvessels (AngioTool); type: in vivo, mouse; settings: SCA1 mice cerebella
Description: as §1, §2

[5] = tested on: ZO-1, Claudin-5 and Occludin; test: Western blot of tight junction proteins in cerebella; type: in vivo, mouse; settings: SCA1 mice cerebella, normalized to actin
Description: as §1
(§3) Proteins were extracted from cerebellar tissues using radioimmunoprecipitation assay (RIPA) buffer (50 mM Tris-HCl, pH 8.0, 150 mM NaCl, 1 mM EDTA, 10 mM NaF, 0.5% Sodium deoxycholate, 1% Triton-X 100, 0.1% SDS, protease inhibitors (Sigma)), and resolved on 7.5% SDS-PAGE gel. Densitometric analysis was evaluated using ImageJ 1.46r software (National Institutes of Health, Bethesda, Md., USA). […]

Ataxin-1 = test: Western blot of Ataxin-1; type: in vivo, mouse; settings: SCA1 mice, two weeks of treatment
Description: as §1, §3

Ataxin-1 inclusions = test: Immunohistochemistry of Ataxin-1 inclusions in hippocampal CA1; type: in vivo, mouse; settings: SCA1 mice, 27 weeks; vs aCSF
Description: as §1
To quantify the percentage of cells with ataxin-1 inclusions in the CA1 regions of the hippocampus, brain sections were stained for ataxin-1 (mouse anti-Ataxin-1 11NQ clone N76/3; NeuroMab, 1:1000) and counterstained with DAPI. The number of cells with ataxin-1 inclusions in each defined region of interest was normalized to the number of cells stained with DAPI only. Statistical analysis was performed using unpaired t test. […]

Purkinje cells [6] = test: Electrophysiological slice recordings, cell-attached, spontaneous firing; type: in vivo, mouse; settings: SCA1 mice treated from 8-10 weeks for two weeks; vs vehicle (aCSF)
Description: as §1
Mice were anesthetized with isoflurane and killed by decapitation. The brains were removed from the skull and placed in warm (30-33° C.) artificial cerebrospinal fluid (ACSF) containing (in mM): 125 NaCl, 25 NaHCO3, 2.5 KCl, 1.25 NaH2PO4, 0.5 CaCl2), 7 MgCl2, 75 sucrose and 25 glucose, equilibrated with 95% O2 and 5% CO2 (pH 7.4). 300 μm thick para-sagittal cerebellar slices were cut using a vibratome (Leica VT1200) and stored in the same solution at 34° C. for 15 min and then at 20-22° C. until used (<6 hours). […] Cells were recorded in the I-Clamp fast mode. […]

[7] = cited from earlier work
[8] = cited from earlier work; remark: listed apart in the source
[9] = SCA1 mice, cerebellar lysates, vs aCSF

| Molecule | rotarod performance [1] | rotarod performance ([1]; listed as Nano-VEGF) | rotarod improvement, nano-VEGF compared with rVEGF ([1]; nano-VEGF 20.0 μg vs rVEGF 2.5 μg over two weeks ICV) | treadmill speed at which treated mice could walk and even run [2] [cm/s] | Purkinje cell dendritic length (calbindin staining) (Purkinje cells [3]) | VEGFR2 phosphorylation level (VEGFR2; [9]) | VEGFR2 phosphorylation level (VEGFR2; wild-type (WT) mice) | average vessel length, improvement compared with rVEGF [4] | branching index, improvement compared with rVEGF [4] | levels of capillary proteins (tight junction markers ZO-1, Claudin-4, and Occludin) [5] | Ataxin-1 protein levels (Ataxin-1) | percentage of cells with Ataxin-1 inclusions in the CA1 of hippocampi (Ataxin-1 inclusions) | spontaneous firing of Purkinje cells (Purkinje cells [6]) | bioequivalence relative to rVEGF ([7]; functional studies in mouse hind-limb ischemia model, basis for dose 20.0 μg vs 2.5 μg) | time detectable post-injection ([7]; ischemic limb model) | retention of particles in tissue ([7]; mouse hind-limb ischemia model) | half-life in vivo [8] |
| --- | --- | --- | --- | --- | --- | --- | --- | --- | --- | --- | --- | --- | --- | --- | --- | --- | --- |
| C16-V2A2K3G-KLTWQELYQLKYKGI (C16-VVAAKKKGKLTWQELYQLKYKGI-NH2) [nano-VEGF, VEGF peptide (mimics VEGF residues 17-25) linked at N terminus to K3G, V2A2 β-domain and C16 alkyl chain; self-assembling peptide amphiphile] | performed markedly better than control SCA1 mice treated with artificial CSF | improved rotarod performance | tended to produce a greater improvement than rVEGF; also recorded: more effective | 17 | significantly increase dendritic length | rescued | did not upregulate phosphorylation of VEGFR2 | greater improvement | greater improvement | more effective than rVEGF | does not alter Ataxin-1 levels | does not differ from that of aCSF-treated mice | significantly faster and more regular firing; also recorded: increases firing in Purkinje cells | approximately eight times that of rVEGF | up to 4 weeks | retained in tissue even four weeks after delivery | – |
| B1 | performed markedly better than control SCA1 mice treated with artificial CSF; also recorded: improved rotarod performance | – | – | 17 | significantly increase dendritic length | rescued | did not upregulate phosphorylation of VEGFR2 | – | – | – | – | – | – | – | – | – | about 30 minutes |
